Entries after “also recorded” stand apart in the source; their conditions may differ.

In data set [1] the test system is LP-1 cells (1,6-fucosylation on the antibody). Briefly: Fucosylation status of LP-1-generated IgG by reducing PLRP-MS. In kind it is cell-based, human. The note with it: 100 μM, 5 days, in words. An excerpt:
To further define the results of the AOL dot blot, samples of the IgGs produced by cells treated with the following fucose analogs (that gave moderate to strong decreases in the dot blot AOL signal) were isolated and examined by reducing PLRP-MS to verify the fucosylation status using the MW of the heavy chain: alkynyl fucose peracetate; 5-vinylfucose tetraaceate; 5-methylketofucose tetraacetate; 6-bromofucose tetraacetate; 6-fluorofucose tetraacetate; 5-ethylfucose tetraacetate; 5-epoxyfucose tetraacetate; 6′6-difluorofucose tetraacetate; 6-keto-6-ethyl fucose tetraacetate; and 2-fluorofucose peracetate.
40 mL samples of LP-1 cells (250,000 cells/mL) were treated with 100 μM of a fucose analog for 5 days as described above, and the IgGs were purified as described using protein A resin. The yields were estimated by UV spectroscopy assuming an extinction coefficient of 1.4 AU/(mg/mL). Seven of the ten compounds yielded enough IgG to perform the analysis (use of SGD-2067, SGD-1964, and SGD-2020 yielded <10 μg of IgG, likely due to toxicity of the analogs to the cells). The remaining IgGs were reduced with 10 mM DTT at 37° C. for 15 min and were separated on PLRP followed by MS analysis using a QTOF mass spectrometer. The resulting heavy chain peaks were examined and compared to the IgG generated by untreated cells.
The mass spectrometry signals were evaluated by comparing the peak height of the heavy chain versus heavy chain minus fucose and heavy chain minus fucose plus the mass of the fucose analog (which would arise if there was incorporation of the analog into the antibody carbohydrate).

Data set [2] relates to LS174T colon adenocarcinoma cells. Briefly: Xenograft of LS174T cells without prior treatment (Example 7, Study 3). In kind it is in vivo, female nude mice. How it is done:
In a third study, tumor cells were implanted without prior treatment with a fucose analog. LS174T colon adenocarcinoma cells (5×10^5 cells in 25% Matrigel) were implanted subcutaneously into female nude mice. Mice were supplied with 50 mM 2-fluorofucose (SGD-2083) in their drinking water from 7 days before implant until 21 days after implant, or were supplied with regular drinking water.

Data set [3] has as its system LS174T colon adenocarcinoma. Briefly: Xenograft of pre-treated LS174T cells (Example 7, Study 2). The note with it: 20 mM in drinking water. It is filed as in vivo, female nude mice. On the procedure: (§1) To further evaluate the activity of these fucose analogs, further studies were performed in vivo using tumor cells that had been pre-treated by culturing in the presence of a fucose analog, or using untreated tumor cells. Tumor cells were implanted into 10 mice per group as follows. For the LS174T, PC-3, and Caki-1 cell lines, 5×10^5 cells in 25% Matrigel were implanted subcutaneously into female nude mice. For HL-60 and Ramos cell lines, 5×10^6 cells were implanted subcutaneously into female SCID mice. For mice implanted with untreated tumor cells, mice were provided regular drinking water. For mice implanted with tumor cells pre-treated with 2-fluorofucose (SGD-2083), the mice were provided drinking water supplemented with 20 mM 2-fluorofucose (SGD-2083). For mice implanted with tumor cells pre-treated with alkylnyl fucose (SGD-1887), the mice were provided with regular drinking water.
(§2) After 3 weeks of receiving 2-fluorofucose-containing drinking water, mice were returned to regular drinking water, except for mice with Caki-1 tumors. The latter mice were returned to regular drinking water for one week. After the week of receiving regular water, mice were randomized to two groups of 5 each to receive drinking water supplemented with 20 mM 2-fluorofucose or regular drinking water. Mice were sacrificed when tumors reached about 1000 mm^3.

Data set [4] relates to A20 murine lymphoma cells. Description: Tumor vaccine model, killed A20 immunization and live A20 challenge. It is filed as in vivo, Female Balb/c mice. Conditions: 50 mM in drinking water days -14 through +21. How it is done:
Female Balb/c mice were immunized by subcutaneous implantation of 1 million A20 murine lymphoma cells (killed by irradiation) on day −21 and day −7. Another group of mice were not given any immunization. On day 0, all mice were inoculated iv with 1.5 or 5 million live A20 cells. On days −14 through +21, mice were provided with 50 mM 2-fluorofucose (SGD-2083) in their drinking water or given regular drinking water. The 8 treatment groups were as follows: • 1. No immunization, 1.5 million live A20 cells, regular drinking water • 2. No immunization, 5 million live A20 cells, regular drinking water • 3. No immunization, 1.5 million live A20 cells, 50 mM SGD-2083 in drinking water • 4. No immunization, 5 million live A20 cells, 50 mM SGD-2083 in drinking water • 5. Immunized, 1.5 million live A20 cells, regular drinking water • 6. Immunized, 5 million live A20 cells, regular drinking water • 7. Immunized, 1.5 million live A20 cells, 50 mM SGD-2083 in drinking water • 8. Immunized, 5 million live A20 cells, 50 mM SGD-2083 in drinking water Results

Data set [5] has as its system antibody core fucosylation (antibodies that did not bind to KLH, recovered from protein A column). It is filed as in vivo. The note with it: 100 mM in drinking water for 14 days; non-KLH antibodies; dot blot; untreated 81%. On the procedure: Female BALB/c mice were immunized with Keyhole Limpet Hemocyanin (KLH) 30-60 days prior to starting this study. For the first study, mice were dosed ip with 150 mg/kg of alkynyl fucose (SGD-1887), alkynyl fucose peracetate (SGD-1890), 2-fluorofucose (SGD-2083), or 2-fluorofucose triacetate (SGD-2084) daily for 7 days or were untreated. On day 2, mice were also boosted with KLH. On the day after the last ip dose, mice were terminally bled and serum obtained. For the second study, mice were given 100 mM of 2-fluorofucose (SGD-2083) in their drinking water or given untreated water for 7 days, boosted with KLH, and continued with 100 mM 2-fluorofucose containing drinking water or untreated water for 7 more days before being terminally bled. Serum was then obtained. No mice died in either study. For both studies, serum was passed over a commercial anti-KLH affinity column to obtain KLH-specific polyclonal antibodies. […]
Dot blots: 0.5 μg each of antibodies from untreated and treated animals, as well as standards of antibody cAC10 having known amounts of core fucosylation (0 to 100% fucose), were blotted onto a nitrocellulose membrane. […] Gel loading (visible) and fucose signals (bioluminescence) were measured with an Alpha Innotech camera and quantitated with the machine software.

Data set [6] has as its system Caki-1 renal cell carcinoma. Description: Xenograft of pre-treated Caki-1 cells (Example 7, Study 2). In kind it is in vivo, female nude mice. Conditions: 20 mM in drinking water, not in first treatment period, observed in second. On the procedure: as §1, §2

For the compound `C#CC(OC(C)=O)[C@@H](OC(C)=O)[C@@H](OC(C)=O)[C@@H](C=O)OC(C)=O` (some centres unmarked) [SGD-1890, 5-ethynylarabinose tetraacetate], in data set [1], the “PLRP/MS (inhibition or incorporation)” value is “complete inhibition; also recorded: Full inhibitor”.
On to `C[C@H](O)[C@@H](O)[C@@H](O)[C@H](F)C=O` [SGD-2083, 2-fluoro-2-deoxy fucose], for which the tumor growth entry in data set [2] (50 mM in drinking water) is “substantial inhibition of tumor growth”; in data set [3], “tumor growth inhibition in vivo was seen”; in data set [6], “tumor growth inhibition in vivo was seen”. The average tumor size in data set [2] (50 mM in drinking water from 7 days before until 21 days after implant, regular water 734 mm^3) was 110 mm^3. Besides, the “survival after live A20 challenge” value in data set [4] (immunized) is listed as “still alive at data collection”; in data set [4] (no immunization, versus regular drinking water), “survived a few days longer”. The “fucosylation levels (average, treated animals)” value in data set [5] is listed as 7%.
